Assay results as given in US4341784A, “Naphthyridine derivatives” (priority 1979, dated 1982).

Experiments:
[1] = system: Staphylococcus aureus No. 50774; assay: In vivo efficacy against systemic infections in mice (intravenous infection); design: species or system male mice (ddY); conditions: NO.50774, 336 h, po, twice, about 5 minutes and 6 hours after intravenous infection, observed 14 days
Procedure: (§1) Each of the solutions was orally administered to mice infected with each of test organisms under the conditions described below, and the medium effective doses (ED50) obtained are shown in Table II. Male mice (ddY) weighing about 20 g (1) Staphylococcus aureus No. 50774: Intravenous infection with about 5×10^8 cells per mouse suspended in saline. Twice, about 5 minutes and 6 hours after infection. |Staphylococcus aureus No. 50774 | for 14 days | The numerals in the table show ED50 (mg/kg). ED50 values were | calculated in accordance with the BehrensKaerber method (Arch. Exp. Path. | Pharm., 162, 480 (1931)). | po: oral administration.

[2] = system: Pseudomonas aeruginosa No. 12; assay: In vivo efficacy against systemic infections in mice (intraperitoneal infection); design: species or system male mice (ddY); conditions: NO.12, 168 h, po, twice, about 5 minutes and 6 hours after intraperitoneal infection, observed 7 days
Procedure: as §1, with “(4) Pseudomonas aeruginosa” for “(1) Staphylococcus aureus”, “12: Intraperitoneal” for “50774: Intravenous”, “5×10^3” for “5×10^8”, “trypto-soy broth with 4% mucin.” for “saline.”, “|Escherichia coli P-5101 for 7 days |Pseudomonas aeruginosa” for “|Staphylococcus aureus”, “12” for “50774 | for 14 days”

[3] = system: Enterobacter cloacae P-2540; assay: In vitro antibacterial activity (MIC, agar dilution method); type: cell-based; conditions: P2540; Enterobacter cloacae P-2540; agar dilution; read-out: minimum inhibitory concentration (MIC)
Procedure: (§2) The minimum inhibitory concentrations (MIC, μg/ml) of the following compounds in vitro were measured by the agar dilution method of [Chemotherapy, Vol. 22, No. 16, page 1126 (1974)].

[4] = system: Staphylococcus epidermidis No. 8; assay: as above; type: cell-based; conditions: Staphylococcus epidermidis No. 8; agar dilution; read-out: minimum inhibitory concentration (MIC)
Procedure: as §2

[5] = system: Pseudomonas aeruginosa Tsuchiijima; assay: as above; type: cell-based; conditions: Pseudomonas aeruginosa Tsuchiijima; agar dilution; read-out: minimum inhibitory concentration (MIC)
Procedure: as §2

[6] = system: Streptococcus faecalis P-2473; assay: as above; type: cell-based; conditions: Enterococcus faecalis, P2473; Streptococcus faecalis P-2473; agar dilution; read-out: minimum inhibitory concentration (MIC)
Procedure: as §2

[7] = Acute toxicity in intravenous injection

CCn1cc(C(=O)O)c(=O)c2cc(F)c(N3CCC(N)C3)nc21.Cl (stereo not shown) [Compound 1, 7-(3-Amino-1-pyrrolidinyl)-1-ethyl-6-fluoro-1,4-dihydro-4-oxo-1,8-naphthyridine-3-carboxylic acid hydrochloride]
ED50 [1]: 3 mg/kg | ED50 [2]: 3.7 mg/kg | MIC [3]: < 0.05 µg/mL | MIC [4]: 0.2 µg/mL | MIC [5]: 0.78 µg/mL | MIC [6]: 3.13 µg/mL

CCn1cc(C(=O)O)c(=O)c2cc(F)c(N3CCC(NC)C3)nc21.Cl (stereo not shown) [Compound 2, 1-Ethyl-6-fluoro-1,4-dihydro-7-(3-methylamino-1-pyrrolidinyl)-4-oxo-1,8-naphthyridine-3-carboxylic acid hydrochloride]
ED50 [1]: 4.8 mg/kg | ED50 [2]: 6.5 mg/kg | acute toxicity in intravenous injection compared with Compound 1 (in words) [7]: lower acute toxicity in intervenous injection than Compound 1 | MIC [3]: 0.39 µg/mL | MIC [4]: 0.39 µg/mL | MIC [5]: 0.78 µg/mL | MIC [6]: 6.25 µg/mL
